Reference: patent publication US9357778B2, “N-acyl-2-(cyclo)alkypyrrolidines and piperidines useful as fungicides” (BAYER CROPSCIENCE AG, priority 2012, dated 2016)

Assays:
[1] = log P by HPLC on reversed-phase column (C 18), EEC Directive 79/831 Annex V.A8; type: physicochemical; details: 40° C., 0.1% aqueous formic acid and acetonitrile
Procedure: In table 1, the log P values were determined in accordance with EEC Directive 79/831 Annex V.A8 by HPLC (High Performance Liquid Chromatography) on a reversed-phase column (C 18), using the method described below: Temperature: 40° C.; Mobile phases: 0.1% aqueous formic acid and acetonitrile; linear gradient from 10% acetonitrile to 90% acetonitrile. Calibration was carried out using unbranched alkan-2-ones (comprising 3 to 16 carbon atoms) with known log P values (determination of the log P values by the retention times using linear interpolation between two successive alkanones). lambda-max-values were determined using UV-spectra from 200 nm to 400 nm and the peak values of the chromatographic signals.

Pyrenophora teres = experiment: In vivo preventive test on Pyrenophora teres (barley); details: 500 ppm of active ingredient, evaluated 7-9 days after inoculation
Procedure: In Vivo Preventive Test on Pyrenophora teres (Barley) • Solvent: 49 parts by weight of N,N-dimethylformamide • Emulsifier: 1 part by weight of alkylaryl polyglycol ether To produce a suitable preparation of active compound, 1 part by weight of active compound is mixed with the stated amounts of solvent and emulsifier, and the concentrate is diluted with water to the desired concentration. To test for preventive activity, young plants are sprayed with the preparation of active compound at the stated rate of application. One day after this treatment, the plants are inoculated with an aqueous spore suspension of Pyrenophora teres. The plants remain for 48 hours in an incubation cabinet at 22° C. and a relative atmospheric humidity of 100%. Then the plants are placed in a greenhouse at a temperature of approximately 20° C. and a relative atmospheric humidity of approximately 80%. The test is evaluated 7-9 days after the inoculation. 0% means an efficacy which corresponds to that of the untreated control while an efficacy of 100% means that no disease is observed.

Alternaria solani = experiment: In vivo preventive test on Alternaria solani (tomato); details: evaluated 7 days after inoculation
Procedure: In Vivo Preventive Test on Alternaria solani (Tomato) • Solvent: 49 parts by weight of N,N-dimethylformamide • Emulsifier: 1 part by weight of alkylarylpolyglycolether To produce a suitable preparation of active compound, 1 part by weight of active compound is mixed with the stated amounts of solvent and emulsifier, and the concentrate is diluted with water to the desired concentration. To test for preventive activity, young plants are sprayed with the preparation of active compound at the stated rate of application. One day after this treatment, the plants are inoculated with an aqueous spore suspension of Alternaria solani. The plants remain for one day in an incubation cabinet at approximately 22° C. and a relative atmospheric humidity of 100%. Then the plants are placed in an incubation cabinet at approximately 20° C. and a relative atmospheric humidity of 96%. The test is evaluated 7 days after the inoculation. 0% means an efficacy which corresponds to that of the untreated control while an efficacy of 100% means that no disease is observed.

Sphaerotheca fuliginea = experiment: In vivo preventive test on Sphaerotheca fuliginea (cucumber); details: 500 ppm of active ingredient, evaluated 7 days after inoculation
Procedure: In Vivo Preventive Test on Sphaerotheca Fulicinea (Cucumber) • Solvent: 49 parts by weight of N,N-dimethylformamide • Emulsifier: 1 part by weight of alkylarylpolyglycolether To produce a suitable preparation of active compound, 1 part by weight of active compound is mixed with the stated amounts of solvent and emulsifier, and the concentrate is diluted with water to the desired concentration. To test for preventive activity, young plants are sprayed with the preparation of active compound at the stated rate of application. One day after this treatment, the plants are inoculated with an aqueous spore suspension of Sphaerotheca fuliginea. Then the plants are placed in a greenhouse at approximately 23° C. and a relative atmospheric humidity of approximately 70%. The test is evaluated 7 days after the inoculation. 0% means an efficacy which corresponds to that of the untreated control, while an efficacy of 100% means that no disease is observed.

Leptosphaeria nodorum = experiment: In vivo preventive test on Leptosphaeria nodorum (wheat); details: 500 ppm of active ingredient, evaluated 8 days after inoculation
Procedure: In Vivo Preventive Test on Leptosphaeria nodorum (Wheat) • Solvent: 49 parts by weight of N,N-dimethylacetamide • Emulsifier: 1 part by weight of alkylaryl polyglycol ether To produce a suitable preparation of active compound, 1 part by weight of active compound or active compound combination is mixed with the stated amounts of solvent and emulsifier, and the concentrate is diluted with water to the desired concentration. To test for preventive activity, young plants are sprayed with the preparation of active compound or active compound combination at the stated rate of application. After the spray coating has been dried, the plants are sprayed with a spore suspension of Leptosphaeria nodorum. The plants remain for 48 hours in an incubation cabinet at approximately 20° C. and a relative atmospheric humidity of approximately 100%. The plants are placed in the greenhouse at a temperature of approximately 22° C. and a relative atmospheric humidity of approximately 80%. The test is evaluated 8 days after the inoculation. 0% means an efficacy which corresponds to that of the untreated control, while an efficacy of 100% means that no disease is observed.

| SMILES | logP [1] | Efficacy (Pyrenophora teres) | Efficacy (Alternaria solani; 500 ppm of active ingredient) | Efficacy (Sphaerotheca fuliginea) | Efficacy (Alternaria solani; 100 ppm of active ingredient) | Efficacy (Leptosphaeria nodorum) |
| --- | --- | --- | --- | --- | --- | --- |
| Cn1nc(C(F)F)c(C(=O)N2CCCC2C(F)(F)F)c1Cl (stereo not drawn) [Example 1] | 2.39 | 100% | – | – | – | – |
| Cn1nc(C(F)F)c(C(=O)N2CCCC2C(F)(F)F)c1F (stereo not drawn) [Example 2] | 2.25 | 100% | – | – | – | – |
| CCCCCCC1CCCN1C(=O)c1cn(C)nc1C(F)F (stereo not drawn) [Example 6] | 3.37 | 95% | 94% | – | – | – |
| CCCCCCC1CCCN1C(=O)c1c(C(F)F)nn(C)c1Cl (stereo not drawn) [Example 7] | 3.94 | 100% | 94% | – | – | – |
| Cn1cc(C(=O)N2CCCC2C2CCCCC2)c(C(F)F)n1 (stereo not drawn) [Example 9] | 2.88 | 100% | 89% | 95% | – | – |
| Cn1nc(C(F)F)c(C(=O)N2CCCC2C2CCCCC2)c1Cl (stereo not drawn) [Example 10] | 3.48 | 100% | 94% | 90% | – | – |
| Cn1cc(C(=O)N2CCCC2C23CC4CC(CC(C4)C2)C3)c(C(F)F)n1 (stereo not drawn) [Example 12] | 3.89 | 100% | 94% | – | 89% | – |
| Cn1nc(C(F)F)c(C(=O)N2CCCC2C23CC4CC(CC(C4)C2)C3)c1Cl (stereo not drawn) [Example 13] | 4.67 | 100% | 94% | – | – | – |
| Cn1nc(C(F)F)c(C(=O)N2CCCC2C23CC4CC(CC(C4)C2)C3)c1F (stereo not drawn) [Example 14] | 4.44 | 100% | 94% | 70% | – | – |
| Cn1cc(C(=O)N2CCCC2CC2CCCCC2)c(C(F)F)n1 (stereo not drawn) [Example 15] | 3.33 | 100% | 89% | 85% | – | – |
| Cn1nc(C(F)F)c(C(=O)N2CCCC2CC2CCCCC2)c1Cl (stereo not drawn) [Example 16] | 3.89 | 100% | 94% | – | – | 70% |
| Cn1nc(C(F)F)c(C(=O)N2CCCCC2C(F)(F)F)c1Cl (stereo not drawn) [Example 18] | 2.80 | 89% | – | – | – | – |
| Cn1nc(C(F)F)c(C(=O)N2CCCCC2C(F)(F)F)c1F (stereo not drawn) [Example 19] | 2.63 | 94% | – | – | – | – |
| CCCCCCC1CCCCN1C(=O)c1cn(C)nc1C(F)F (stereo not drawn) [Example 20] | 3.71 | 100% | 100% | – | 94% | – |
| CCCCCCC1CCCCN1C(=O)c1c(C(F)F)nn(C)c1Cl (stereo not drawn) [Example 21] | 4.39 | 100% | 100% | – | – | – |
| CCCCCCC1CCCCN1C(=O)c1c(C(F)F)nn(C)c1F (stereo not drawn) [Example 22] | 4.18 | 100% | 100% | – | – | – |
| Cn1nc(C(F)F)c(C(=O)N2CCCCC2C2CCCCC2)c1Cl (stereo not drawn) [Example 23] | 3.85 | 100% | 88% | – | – | – |
| Cn1nc(C(F)F)c(C(=O)N2CCCCC2C2CCCCC2)c1F (stereo not drawn) [Example 24] | 3.60 | 100% | 94% | 95% | – | – |
| Cn1cc(C(=O)N2CCCCC2C2CCCCC2)c(C(F)F)n1 (stereo not drawn) [Example 25] | 3.15 | 100% | 90% | 100% | 90% | – |
| Cn1nc(C(F)F)c(C(=O)N2CCCCC2CC2CCCCC2)c1F (stereo not drawn) [Example 26] | 4.19 | 100% | 100% | 100% | – | – |
| CCCOCCC1CCCCN1C(=O)c1cn(C)nc1C(F)F (stereo not drawn) [Example 27] | 2.39 | – | – | – | – | – |
| CCCOCCC1CCCCN1C(=O)c1c(C(F)F)nn(C)c1Cl (stereo not drawn) [Example 28] | 2.90 | – | – | – | – | – |

| SMILES | logP [1] | Efficacy (Pyrenophora teres) | Efficacy (Alternaria solani; 500 ppm of active ingredient) | Efficacy (Sphaerotheca fuliginea) | Efficacy (Alternaria solani; 100 ppm of active ingredient) | Efficacy (Leptosphaeria nodorum) |
| --- | --- | --- | --- | --- | --- | --- |
| CCCOCCC1CCCCN1C(=O)c1c(C(F)F)nn(C)c1F (stereo not drawn) [Example 29] | 2.73 | 100% | 94% | – | – | – |
| CCCCOCCC1CCCCN1C(=O)c1cn(C)nc1C(F)F (stereo not drawn) [Example 30] | 2.80 | 95% | 89% | – | – | – |
| CCCCOCCC1CCCCN1C(=O)c1c(C(F)F)nn(C)c1Cl (stereo not drawn) [Example 31] | 3.35 | 90% | 89% | – | – | – |
| CCCCOCCC1CCCCN1C(=O)c1c(C(F)F)nn(C)c1F (stereo not drawn) [Example 32] | 3.19 | 100% | 94% | – | – | – |
| Cn1cc(C(=O)N2CCCCC2CCOCC2CC2)c(C(F)F)n1 (stereo not drawn) [Example 33] | 2.32 | 94% | – | – | – | – |
| Cn1nc(C(F)F)c(C(=O)N2CCCCC2CCOCC2CC2)c1Cl (stereo not drawn) [Example 34] | 2.82 | 94% | – | – | – | – |
| Cn1nc(C(F)F)c(C(=O)N2CCCCC2CCOCC2CC2)c1F (stereo not drawn) [Example 35] | 2.66 | 94% | 94% | – | – | – |
| Cn1nc(C(F)F)c(C(=O)N2CCCCC2CCOCC2CCC2)c1Cl (stereo not drawn) [Example 36] | 3.51 | 78% | 88% | – | – | – |
| Cn1nc(C(F)F)c(C(=O)N2CCCCC2CCOCC2CCC2)c1F (stereo not drawn) [Example 37] | 3.33 | 94% | 94% | – | – | – |
| Cn1cc(C(=O)N2CCCCC2CCOCC2CCC2)c(C(F)F)n1 (stereo not drawn) [Example 38] | 2.92 | 89% | – | – | – | – |
| COCCCOCCC1CCCCN1C(=O)c1c(C(F)F)nn(C)c1Cl (stereo not drawn) [Example 39] | 2.39 | – | – | – | – | – |
| COCCCOCCC1CCCCN1C(=O)c1c(C(F)F)nn(C)c1F (stereo not drawn) [Example 40] | 2.25 | 95% | 94% | – | – | – |
| COCCCOCCC1CCCCN1C(=O)c1cn(C)nc1C(F)F (stereo not drawn) [Example 41] | 1.96 | 70% | – | – | – | – |
| Cn1cc(C(=O)N2CCCCC2CCOCCC2CCCCC2)c(C(F)F)n1 (stereo not drawn) [Example 42] | 4.23 | 95% | 78% | – | – | – |
| Cn1nc(C(F)F)c(C(=O)N2CCCCC2CCOCCC2CCCCC2)c1Cl (stereo not drawn) [Example 43] | 4.87 | 90% | – | – | – | – |
| Cn1nc(C(F)F)c(C(=O)N2CCCCC2CCOCCC2CCCCC2)c1F (stereo not drawn) [Example 44] | 4.67 | 100% | 89% | – | – | – |
| COCCCC1CCCCN1C(=O)c1cn(C)nc1C(F)F (stereo not drawn) [Example 45] | 1.88 | – | – | – | – | – |
| COCCCC1CCCCN1C(=O)c1c(C(F)F)nn(C)c1Cl (stereo not drawn) [Example 46] | 2.33 | – | – | – | – | – |
| COCCCC1CCCCN1C(=O)c1c(C(F)F)nn(C)c1F (stereo not drawn) [Example 47] | 2.18 | 100% | 89% | – | – | – |
| Cn1nc(C(F)F)c(C(=O)N2CCCC2CC2CC3CCC2C3)c1Cl (stereo not drawn) [Example 50] | 3.99 | 100% | 88% | – | – | – |
| Cn1nc(C(F)F)c(C(=S)N2CCCC2CC2CCCCC2)c1F (stereo not drawn) [Example 51] | 3.96 | – | – | – | – | – |
| Cn1nc(C(F)F)c(C(=S)N2CCCC2C23CC4CC(CC(C4)C2)C3)c1F (stereo not drawn) [Example 52] | 4.51 | – | – | – | – | – |
